# According to patent US12540120B2, “Herbicidal compounds” (SYNGENTA CROP PROTECTION AG, priority 2019, dated 2026):
# Tests used:
# Type in all cases: in vivo
# [1] = system: Solanum nigrum (SOLNI); assay: B5 Pre-Emergence Efficacy—Test 2; conditions: 250 g/ha, evaluated after 13 days
# Experimental: (§1) B5 Pre-Emergence Efficacy—Test 2 Seeds of a variety of test species were sown in standard soil in pots: Solanum nigrum (SOLNI), Amaranthus retoflexus (AMARE), Setaria faberi (SETFA), Echinochloa crus-galli (ECHCG), Ipomoea hederacea (IPOHE), Lolium perenne (LOLPE). After cultivation for one day (pre-emergence) under controlled conditions in a glasshouse (at 24/16° C., day/night; 14 hours light; 65% humidity), the plants were sprayed with an aqueous spray solution derived from the formulation of the technical active ingredient in acetone/water (50:50) solution containing 0.5% Tween 20 (polyoxyethelyene sorbitan monolaurate, CAS RN 9005-64-5). Compounds are applied at 250 g/ha. The test plants were then grown in a glasshouse under controlled conditions (at 24/16° C., day/night; 14 hours light; 65% humidity) and watered twice daily. After 13 days, the test is evaluated for the percentage damage caused to the plant. The biological activities are assessed on a five point scale (5=80-100%; 4=60-79%; 3=40-59%; 2=20-39%; 1=0-19%). A blank value in the table is indicative that the compound was not tested on that species.
# [2] = system: Amaranthus retoflexus (AMARE); assay: B5 Pre-Emergence Efficacy—Test 2; conditions: 250 g/ha, evaluated after 13 days
# Experimental: as §1
# [3] = system: Solanum nigrum (SOLNI); assay: B2 Post-Emergence Efficacy—Test 2; conditions: post-emergence application, 250 g/ha, evaluated after 13 days (Test 2)
# Experimental: (§2) B2 Post-Emergence Efficacy—Test 2 Seeds of a variety of test species are sown in standard soil in pots:—Solanum nigrum (SOLNI), Amaranthus retoflexus (AMARE), Setaria faberi (SETFA), Echinochloa crus-galli (ECHCG), Ipomoea hederacea (IPOHE), Lolium perenne (LOLPE). After 8 days cultivation (post-emergence) under controlled conditions in a glasshouse (at 24/16° C., day/night; 14 hours light; 65% humidity), the plants are sprayed with an aqueous spray solution derived from the formulation of the technical active ingredient in acetone/water (50:50) solution containing 0.5% Tween 20 (polyoxyethylene sorbitan monolaurate, CAS RN 9005-64-5). Compounds are applied at 250 g/ha. The test plants are then grown in a glasshouse under controlled conditions in a glasshouse (at 24/16° C., day/night; 14 hours light; 65% humidity) and watered twice daily. After 13 days, the test is evaluated for the percentage damage caused to the plant. The biological activities are assessed on a five point scale (5=80-100%; 4=60-79%; 3=40-59%; 2=20-39%; 1=0-19%). A blank value in the table is indicative that the compound was not tested on that species.
# [4] = system: Ipomoea hederacea (IPOHE); assay: B2 Post-Emergence Efficacy—Test 2; conditions: post-emergence application, 250 g/ha, evaluated after 13 days (Test 2)
# Experimental: as §2
# [5] = system: Echinochloa crus-galli (ECHCG); assay: B2 Post-Emergence Efficacy—Test 2; conditions: post-emergence application, 250 g/ha, evaluated after 13 days (Test 2)
# Experimental: as §2
# [6] = system: Setaria faberi (SETFA); assay: B2 Post-Emergence Efficacy—Test 2; conditions: post-emergence application, 250 g/ha, evaluated after 13 days (Test 2)
# Experimental: as §2
# [7] = system: Lolium perenne (LOLPE); assay: B2 Post-Emergence Efficacy—Test 2; conditions: post-emergence application, 250 g/ha, evaluated after 13 days (Test 2)
# Experimental: as §2
# [8] = system: Amaranthus retoflexus (AMARE); assay: B2 Post-Emergence Efficacy—Test 2; conditions: post-emergence application, 250 g/ha, evaluated after 13 days (Test 2)
# Experimental: as §2
# [9] = system: Ipomoea hederacea (IPOHE); assay: B5 Pre-Emergence Efficacy—Test 2; parameters: key: 5-point scale: 5=80-100%, 4=60-79%, 3=40-59%, 2=20-39%, 1=0-19% damage; conditions: 250 g/ha, evaluated after 13 days
# Experimental: as §1
# [10] = system: Echinochloa crus-galli (ECHCG); assay: B5 Pre-Emergence Efficacy—Test 2; parameters: key: 5-point scale: 5=80-100%, 4=60-79%, 3=40-59%, 2=20-39%, 1=0-19% damage; conditions: 250 g/ha, evaluated after 13 days
# Experimental: as §1
# [11] = system: Setaria faberi (SETFA); assay: B5 Pre-Emergence Efficacy—Test 2; parameters: key: 5-point scale: 5=80-100%, 4=60-79%, 3=40-59%, 2=20-39%, 1=0-19% damage; conditions: 250 g/ha, evaluated after 13 days
# Experimental: as §1
# [12] = system: Lolium perenne (LOLPE); assay: B5 Pre-Emergence Efficacy—Test 2; parameters: key: 5-point scale: 5=80-100%, 4=60-79%, 3=40-59%, 2=20-39%, 1=0-19% damage; conditions: 250 g/ha, evaluated after 13 days
# Experimental: as §1
SMILES,"Control of weed species after pre-emergence application, SOLNI (percentage damage, five point scale) [1]","Control of weed species after pre-emergence application, AMARE (percentage damage, five point scale) [2]","percentage damage caused to the plant, five point scale, SOLNI [3]","percentage damage caused to the plant, five point scale, IPOHE [4]","percentage damage caused to the plant, five point scale, ECHCG [5]","percentage damage caused to the plant, five point scale, SETFA [6]","percentage damage caused to the plant, five point scale, LOLPE [7]","percentage damage caused to the plant, five point scale, AMARE [8]","Control of weed species after pre-emergence application, IPOHE (percentage damage, five point scale) [9]","Control of weed species after pre-emergence application, ECHCG (percentage damage, five point scale) [10]","Control of weed species after pre-emergence application, SETFA (percentage damage, five point scale) [11]","Control of weed species after pre-emergence application, LOLPE (percentage damage, five point scale) [12]"
Cc1nn(C)c(=O)c(-c2c(F)ccc(Cl)c2CCc2ccc(NC(=O)OC(C)(C)C)c(F)c2)c1O [Compound A-1.042],5 (5=80-100%),5 (5=80-100%),5 (5=80-100%),3 (3=40-59%),5 (5=80-100%),5 (5=80-100%),5 (5=80-100%),5 (5=80-100%),2 (2=20-39%),2 (2=20-39%),5 (5=80-100%),1 (1=0-19%)
CC(=O)Nc1cc(CCc2c(Cl)ccc(F)c2-c2c(O)c(C)nn(C)c2=O)ccn1 [Compound A-1.044],5 (5=80-100%),5 (5=80-100%),5 (5=80-100%),0,3 (3=40-59%),5 (5=80-100%),4 (4=60-79%),5 (5=80-100%),1 (1=0-19%),3 (3=40-59%),5 (5=80-100%),2 (2=20-39%)
Cc1nn(C)c(=O)c(-c2c(F)ccc(Cl)c2CCc2ccc(S(C)(=O)=O)cc2)c1O [Compound A-1.032],5 (5=80-100%),5 (5=80-100%),5 (5=80-100%),5 (5=80-100%),5 (5=80-100%),5 (5=80-100%),5 (5=80-100%),5 (5=80-100%),2 (2=20-39%),5 (5=80-100%),5 (5=80-100%),5 (5=80-100%)
Cc1nn(C)c(=O)c(-c2c(F)ccc(Cl)c2CCc2ccccc2C#N)c1OC(=O)C(C)C [Compound A-3.029],5 (5=80-100%),4 (4=60-79%),5 (5=80-100%),5 (5=80-100%),1 (1=0-19%),2 (2=20-39%),2 (2=20-39%),4 (4=60-79%),3 (3=40-59%),3 (3=40-59%),2 (2=20-39%),2 (2=20-39%)
"Cc1nn(C)c(=O)c(-c2c(F)ccc(Cl)c2CCc2ccc(-n3cncn3)cc2)c1O [Compound A-1.385, 4-[3-chloro-6-fluoro-2-[2-[4-(1,2,4-triazol-1-yl)phenyl]ethyl]phenyl]-5-hydroxy-2,6-dimethyl-pyridazin-3-one]",5 (5=80-100%),5 (5=80-100%),5 (5=80-100%),5 (5=80-100%),5 (5=80-100%),5 (5=80-100%),5 (5=80-100%),5 (5=80-100%),5 (5=80-100%),5 (5=80-100%),5 (5=80-100%),5 (5=80-100%)
Cc1nn(C)c(=O)c(-c2c(F)ccc(Cl)c2CCc2ccc(OC(C)(C)C)cc2)c1OC(=O)C(C)C [Compound A-3.035],5 (5=80-100%),4 (4=60-79%),5 (5=80-100%),5 (5=80-100%),4 (4=60-79%),5 (5=80-100%),5 (5=80-100%),5 (5=80-100%),5 (5=80-100%),4 (4=60-79%),5 (5=80-100%),5 (5=80-100%)
